Experimental data from patent US6803044B1, “Antimicrobial and anti-inflammatory peptides for use in human immunodeficiency virus” (priority 1999, dated 2004).
Ends that are not written are not given here.

Key:
[1] = centrally administered, rabbit; cited from earlier work
[2] = test system: C. albicans (clinical isolate); test: Melanocortin peptides on C. albicans viability (colony forming units); format: cell-based; conditions: for reduction of C. albicans CFU at higher concentrations: up to 10^−4M; for C. albicans colony forming units (CFU): two hours at 37° C.
Description: S. aureus (ATCC 29213) and C. albicans (clinical isolate) were obtained from the collection of the Department of Microbiology, Ospedale Maggiore di Milano. C. albicans were maintained on Sabouraud'[…] periodically transferred to Sabouraud's agar plates and incubated for 48 hours at 28° C. To prepare stationary growth phase yeast, a colony was taken from the agar plate and transferred into 30 ml Sabouraud-dextrose broth and incubated for 72 hours at 32° C. Cells were centrifuged at 100×g for 10 minutes and the pellet was washed twice with distilled water. Cells were counted and suspended in Hank's balanced salt solution (“HBSS”) to the desired concentration. Viability, determined by the exclusion of 0.01% methylene blue, remained >98%. […] Cells were then washed in cold distilled water and diluted with HBSS to a concentration of 100 organisms/ml. One ml aliquots were dispensed on blood agar plates and incubated for 48 hours at 37° C. Organism viability was estimated from the number of colonies formed. In subsequent experiments using similar procedures we compared activity of α-MSH (4-10), (6-13), (11-13), ACTH (1-39), (18-39), and fluconazole, the latter an established […]. […] There were at least six replicates for each concentration of peptide. […] The reaction was stopped after three minutes by the addition of ice cold ethanol. cAMP was measured in duplicate using a commercial enzyme immunoassay (EIA) kit (Amersham, United Kingdom) after extraction via the liquid-phase method according to manufacturer's instructions.

[3] = test system: chronically HIV-1 infected promonocytic U1 cell line; test: reverse transcriptase (RT) release by stimulated U1 cells (ELISA); format: cell-based; conditions: U1 cells induced by IL-6, IL-10, PMA, and in crowding condition; KPV 10^−5 M
Description: (§1) Before use, cells were washed three times with HBSS (Gibco) to remove extracellular virus. […] In crowding experiments, U1 cells were seeded at the density of 2×10^5 mL and maintained in culture at 37° C. in 5% CO2 without change of medium for 7 days. […] In all experiments each condition was tested in triplicate.
(§2) p24 antigen release (Cellular Products Inc. Buffalo, N.Y., USA) and reverse transcriptase (ELISA Retrosys RT assay, Innovagen, Lund, Sweden) were determined using commercial ELISA kits.

[4] = test system: HIV-1 RNA in PMA-stimulated U1 cells; test: Northern blot for HIV-1 RNA in U1 cells; format: cell-based; conditions: PMA (1 ng/mL)-stimulated U1 cells; KPV 10^−5 M; 24 h
Source text: Total RNA was extracted by the guanidine thiocyapate phenol method using an RNA isolation kit (Tripure, Boehringer Mannheim, Indianapolis, Ind.), following the manufacturer's instructions. Ten μg of total RNA were separated by 0.8% agarose/formaldehyde gel electrophoresis and transferred onto nylon membrane. The filters were baked and hybridized for 18 hr with α^32 P-labeled HIV-full length probe (kind gift of L. Turchetto and E. Vicenzi, S. Raffaele Hospital, Milan, Italy). The radiolabelling reaction was performed using a DNA labelling kit (Ready-to-go, Pharmacia Biotech, San Francisco, Calif.). Filters were washed and exposed to X-ray film for 5 days. The labeled probe was removed by washing at 80° C. in 0.1×SSC containing 0.1% sodium dodecyl sulphate and then rehybridized witb α^32 P-labeled glyceraldehyde-3-phosphate dehydrogenase (GAPDH) cDNA probe. Densitometric analysis was performed using ImageMaster™ VDS 3.0 software (Pharmacia Biotech) and results were expressed as density units.

[5] = test system: chronically HIV-1 infected promonocytic U1 cell line; test: p24 antigen release by stimulated U1 cells (ELISA); format: cell-based; conditions: for most effective concentration for HIV inhibition (p24 release): tested 10^−13 to 10^−4 M
Description: as §1, §2

[6] = test system: C. albicans; test: cAMP accumulation in C. albicans (EIA); format: cell-based; conditions: 10^−6M; three minutes
Description: The reaction was stopped after three minutes by the addition of ice cold ethanol. cAMP was measured in duplicate using a commercial enzyme immunoassay (EIA) kit (Amersham, United Kingdom) after extraction via the liquid-phase method according to manufacturer's instructions.

[7] = test system: HIV-1Ba-L strain in human MDM; test: RT release in acutely infected monocyte derived macrophages (MDM); format: cell-based; conditions: KPV 10^−5 M daily, more pronounced on day 6, still significant on day 21
Description: as §2
Human peripheral blood mononuclear cells (PBMCs) were isolated from normal donors by Ficoll-Hypaque density gradient centrifugation. Monocytes were isolated by Percoll gradient separation and allowed to differentiate into macrophages (MDM) in complete medium RPMI plus 20% FCS in 24-well tissue culture plates at 10^6 cells/mL for 7-days. MDM were infected with monocytotropic HIV-1Ba-L strain (1:10) overnight. The undiluted viral stock contained 10^7 infectious Units/mL. After 24 h, MDM were washed and resuspended in complete medium, replaced 3 times/week, for 3 weeks. RT activity was measured weekly post-infection.

[8] = test system: C. albicans; test: α-MSH peptides on C. albicans germination (horse serum-induced); format: cell-based; conditions: horse serum-induced germ tube formation; peptide 10^−4M; 60 minutes
Description: C. albicans from stationary phase cultures were washed twice with distilled water and suspended in HBSS to a final concentration of 2×10^6/ml. Hyphal growth was induced by addition of 10% inactivated horse serum (GMCO/BRL, Paisley, Great Britain) to yeast incubated for 45 minutes at 37° C. with continuous shaking. […] The percentage of filamentous cells was evaluated under a light microscope with the aid of a hartocytometer. Experiments were run in triplicate and at least 200 cells were scored. Photomicrographs were taken with a MC100 […] attached to an Axioskop Zeiss microscope.

[9] = test system: C. albicans killing by human neutrophils; test: C. albicans killing by human neutrophils; format: cell-based; conditions: two hours at 37° C.
Description: Venous blood (20 ml) from healthy volunteers was anticoagulated with heparin. Neutrophils were isolated using dextran sedimentation and Ficoll-Hypaque (Sigma Chemical Co., St. Louis, Mo., USA) centrifugation. Erythrocytes were lysed via hypotonic shock. Neutrophils represented at least 97% of the cell suspension. Cell viability, estimated by trypan blue exclusion, was >98%. Neutrophils were suspended to final concentration in HBSS. […] After incubation, the culture tubes were placed on ice to stop growth and extracellular organisms were washed twice with centrifugation at 100×g at 4° C. A 2.5% sodium desoxycholate solution was added to the suspension and the tubes were shaken for five minutes. Cold distilled water was added to obtain a suspension of 10^6 cells/ml. Two 1/100 serial dilution in HBSS were made to obtain a final suspension of 100 cells/ml. Aliquots of 1 ml were dispensed on blood agar plates and incubated for 48 hours at 37° C. Colony forming units (“CFU”) were counted at the end of the incubation period. Experiments were run in triplicate and repeated using blood from five different donors.

[10] = test system: S. aureus (ATCC 29213); test: Melanocortin peptides on S. aureus viability (colony formation); format: cell-based; conditions: two hours at 37° C.
Description: S. aureus (ATCC 29213) and C. albicans (clinical isolate) were obtained from the collection of the Department of Microbiology, Ospedale Maggiore di Milano. C. albicans were maintained on Sabouraud'[…] periodically transferred to Sabouraud's agar plates and incubated for 48 hours at 28° C. To prepare stationary growth phase yeast, a colony was taken from the agar plate and transferred into 30 ml Sabouraud-dextrose broth and incubated for 72 hours at 32° C. Cells were centrifuged at 100×g for 10 minutes and the pellet was washed twice with distilled water. Cells were counted and suspended in Hank's balanced salt solution (“HBSS”) to the desired concentration. Viability, determined by the exclusion of 0.01% methylene blue, remained >98%. […] Cells were then washed in cold distilled water and diluted with HBSS to a concentration of 100 organisms/ml. One ml aliquots were dispensed on blood agar plates and incubated for 24 hours at 37° C. Organism viability was estimated from the number of colonies formed.

[11] = test system: S. aureus; test: Urokinase-induced growth enhancement of S. aureus; format: cell-based; conditions: peptide 10^−6M; urokinase 500 U; four hours
Source text: In experiments on S. aureus, we determined the influence of α-MSH on urokinase-induced growth-enhancement. Hart, D. A.; Loule, T.; Krulikl, W.; Reno, C., Staphylococcus Aureus Strains Differ in Their in Vitro Responsiveness to Human Urokinase: Evidence that Methicillin-Resistant Strains are Predominantly Nonresponsive to the Growth-Enhancing Effects of Urokinase, Can. J. Microbiol. 42, 1024-31 […]. […] Appropriate dilutions of S. aureus were dispensed on agar plates and colonies counted after 24 hours incubation at 37° C.

[12] = test system: NF-κB; test: Electrophoretic mobility shift assay of NF-κB DNA-binding activity in U1 cells; format: cell-based; conditions: 10^−5 M peptide
Source text: The mixtures were run on a 5% (30:1) acrylamide gel in 1× Tris-Borate-EDTA (TBE). Gels were dried and exposed to film for autoradiography (3 days).

[13] = in vivo; cited from earlier work
[14] = 10^−4M melanocortin peptides (FIG. 11 legend: 10^−6M)

10-13 sequence: α-MSH (11-13) with glycine added to form the 10-13 sequence (GKPV; ends and bridges not checked; UniProt P01189 147-150, looked up, fragment)
antipyretic potency relative to the 11-13 sequence [1]: slightly decreased potency

ACTH (1-39): melanocortin peptide ACTH (1-39) (SYSMEHFRWGKPVGKKRRPVKVYPNGAEDESAEAFPLEF; Corticotropin; UniProt P01189 138-176, looked up) [reference compound]
relative potency in reducing C. albicans viability [2, 14]: did not reduce C. albicans viability
reduction of C. albicans CFU at higher concentrations [2]: likewise ineffective

ACTH fragment (18-39): ACTH fragment (18-39) (CLIP) [reference compound]
relative potency in reducing C. albicans viability [2, 14]: did not reduce C. albicans viability
reduction of C. albicans CFU at higher concentrations [2]: likewise ineffective

HFRWGKPV [α-MSH (6-13)]
relative potency in reducing C. albicans viability [2, 14]: most effective

KPV
RT release [3]: significantly inhibited
reduction of both spliced and unspliced HIV-1 RNA [4]: approximately 50%
most effective concentration for HIV inhibition (p24 release) ([5]; TNF-α-stimulated U1 cells): 10^−5 M
p24 release ([5]; U1 cells induced by IL-6, IL-10, PMA, and in crowding condition, KPV 10^−5 M): significantly inhibited
cAMP content of C. albicans [6]: enhanced cAMP content
RT release [7]: significantly inhibited
reduction in the number of filamentous cells (inhibition of germination) [8]: 54-58%
killing of C. albicans by human neutrophils [9]: enhanced killing
S. aureus colony formation [10]: inhibited
C. albicans colony forming units (CFU) [2]: greatly reduced
enhancing effect of urokinase on S. aureus colony formation [11]: significantly inhibited
NF-κB activation (DNA binding) ([12]; TNF-α-treated U1 cells): significantly reduced
NF-κB activation (DNA binding) ([12]; resting U1 cells): did not alter

MEHFRWG [α-MSH sequence (4-10)]
inhibition of C. albicans CFU [2, 14]: approximately 50%

NH2-Val-Pro-Lys-Ac-Cys-Cys-Ac-Lys-Pro-Val-NH2 (Ac-CKPV-NH2; also: dimer linked through Cys-Cys) [KPV dimer]
S. aureus colony formation [10]: inhibited
effectiveness against microbes compared with α-MSH (11-13) ([2]; S. aureus and C. albicans): at least as effective as α-MSH (11-13)
C. albicans colony forming units (CFU) [2]: inhibited

SYSMEHFRWGKPV (listed as Homo sapiens) [α-MSH (1-13)]
inhibition of p24 release ([5]; TNF-α-stimulated U1 cells, picomolar peptide concentrations that occur in human plasma): 34-36%
most effective concentration for HIV inhibition (p24 release) ([5]; TNF-α-stimulated U1 cells): 10^−5 M
cAMP content of C. albicans [6]: enhanced cAMP content
killing of C. albicans by human neutrophils [9]: enhanced killing
S. aureus colony formation [10]: inhibited
C. albicans colony forming units (CFU) [2]: greatly reduced
enhancing effect of urokinase on S. aureus colony formation [11]: significantly inhibited

[Nle^4, D-Phe^7], α-MSH
potency in reducing fever relative to parent peptide [13]: approximately ten times more potent than the parent peptide
